Where “and” joins values, the source holds several entries; their conditions need not be identical. Equal entries are not always repeated.
How the values were obtained:
T47D cells = experiment: T47D cell proliferation assay (BrdU incorporation); format: cell-based; conditions: decrease in trimegestone induced BrdU incorporation, individual experiments
Protocol: 3. T47D Cell Proliferation Assay
The objective of this assay is the determination of progestational and antiprogestational potency by using a cell proliferation assay in T47D cells. A compound's effect on DNA synthesis in T47D cells is measured.
DMEM:F12(1:1) (GIBCO, BRL) supplemented with 10% (v/v) fetal bovine serum (not heat-inactivated), 100 U/ml penicillin, […], and 2 mM GlutaMax (GIBCO, BRL).
Minimum Essential Medium (MEM) (#51200-038GIBCO, BRL) phenol red-free supplemented with 0.5% charcoal stripped fetal bovine serum, 100 U/ml penicillin, […] streptomycin, and 2 mM GlutaMax (GIBCO, BRL). […]
At the end of BrdU labeling, the medium is removed and BrdU incorporation is measured using a cell proliferation ELISA kit (#RPN 250, Amersham Life Science) according to manufacturer's instructions. […] Then 25 μl of 1 M sulfuric acid is added to each well to stop color reaction and optical density is read in a plate reader at 450 nm within 5 min.
Square root-transformed data are used for analysis of variance and nonlinear dose response curve fitting for both agonist and antagonist modes. […] EC50 or IC50 values are calculated from the retransformed values.
Trimegestone and medroxyprogesterone acetate (MPA) are reference progestins and RU486 is the reference antiprogestin. All reference compounds are run in fill dose-response curves and the EC50 or IC50 values are calculated.

[1] = system: rat uterine decidualization; experiment: Rat decidualization assay; conditions: ovariectomized rats, s.c.; for Estimated average EC50: average of dose-response curves; for EC50: uterine wet weight (decidual response), individual studies

Row | Structure (SMILES) | IC50 (T47D cells) | melting point | Estimated average EC50 [1] | EC50 [1]
1 | CCC1C(=O)Nc2ccc(-c3cccc(Cl)c3)cc21 (stereo not shown) [Example 6, 5-(3Chloro-phenyl)-3-ethyl-1,3-dihydro-indol-2-one] | – | 100 to 101 °C | – | –
2 | C#C[C@]1(O)CC[C@H]2[C@@H]3CCC4=CC(=O)CC[C@@H]4[C@H]3C(=C)C[C@@]21CC [3-Ketodesogestrel, 3-ketodesogestrel] | – | – | 0.10 mg/kg. s.c. | 0.10 mg/kg, s.c. and 0.06 mg/kg, s.c. and 0.11 mg/kg, s.c.
3 | O=C1CCC(c2cc(F)cc(Br)c2)CC12CNc1ccccc12 (stereo not shown) [Example 28, 5-(3-Bromo-5-fluorophenyl)spiro[cyclohexane-1,3-[3H]indol]-2(1′H)-one] | – | 194 to 196 °C | – | –

Continued, in another order:

Row | IC50 (T47D cells) | melting point | Estimated average EC50 [1] | Structure (SMILES) | EC50 [1]
4 | 0.016 nM and 0.018 nM | – | – | CC#C[C@]1(O)CC[C@H]2[C@@H]3CCC4=CC(=O)CCC4=C3[C@@H](c3ccc(N(C)C)cc3)C[C@@]21C [RU486] | –
5 | – | – | 0.10 mg/kg. s.c. | C#C[C@]1(O)CC[C@H]2[C@@H]3CCC4=CC(=O)CC[C@@H]4[C@H]3CC[C@@]21CC [Levonorgestrel, levonorgestrel] | 0.08 mg/kg, s.c. and 0.12 mg/kg, s.c. and 0.09 mg/kg, s.c. (2×)

Reference: patent US6462032B1, “Cyclic regimens utilizing indoline derivatives” (Wyeth, priority 1999, dated 2002)
